# Test results taken from patent EP4603105A1, “PHARMACEUTICAL COMPOSITION CONTAINING CYCLIC COMPOUND HAVING SELECTIVE KRAS INHIBITORY EFFECT AGAINST HRAS AND NRAS” (CHUGAI SEIYAKU KABUSHIKI KAISHA, priority 2022, dated 2024).
# pIC50: −log10 of the molar value. *1 amine or outer side, *2 acyl side, *3 side chain or, on linkers, in order; H or OH if unused. Where a SMILES comes first, the peptide text is derived from it. Bridges are numbered along the chain shown (N, C = ends). [ ]: non-standard residue; d: D form. The star is where a group is joined. hPhe(3-Cl-4-CF3) = N[C@@H](CCc1ccc(C(F)(F)F)c(Cl)c1)C(=O)O; X32 = Cc1ccc(C[C@@H](C(=O)[*:2])N(CC2CCCC2)[*:1])cc1; NMePhe(4-CF3) = CN[C@@H](Cc1ccc(C(F)(F)F)cc1)C(=O)O; X40 = Cc1ccc(C[C@@H](C(=O)[*:2])N(CC(C)C)[*:1])cc1; X49 = Cc1ccc(C[C@@H](C(=O)[*:2])N(CC2CC2)[*:1])cc1; X1 = CCCCN([C@@H](Cc1ccc(C)cc1)C(=O)[*:2])[*:1]; NPrPhe(4-Me) = CCCN[C@@H](Cc1ccc(C)cc1)C(=O)O; X21 = CCCN([C@H](C(=O)[*:2])C1CCCC1)[*:1]; NMeGly(cPent) = CN[C@H](C(=O)O)C1CCCC1; NMeD = CN[C@@H](CC(=O)O)C(=O)O; NMeL = CN[C@@H](CC(C)C)C(=O)O; Morpholide = C1CN(*)CCO1; NMeA = CN[C@@H](C)C(=O)O; Ac5c = NC1(C(=O)O)CCCC1; Aze = O=C(O)[C@@H]1CCN1; NEtG = CCNCC(=O)O; Sar = CNCC(=O)O
# Tests used:
# [1] = molecular target: GDP-bound NRAS wild-type protein (Homo sapiens, UniProt P01111); assay: Binding to NRAS by surface plasmon resonance (SPR), KD and KD ratio to KRAS; settings: ratio of KD for GDP-bound NRAS wild-type protein to KD for KRAS
# How it was run: (§1)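 Captured GDP-RAS (~100–300 RU) was exposed to increasing compound concentrations, 75 s per step, in running buffer with 10 µM GDP, 10 mM MgCl2 and 4% DMSO at pH 7.4.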
# HRAS wild-type protein = HRAS wild-type protein (Homo sapiens, UniProt P01112); assay: Binding to HRAS by surface plasmon resonance (SPR), KD and KD ratio to KRAS; settings: ratio of KD for HRAS wild-type protein to KD for KRAS
# How it was run: as §1
# [2] = system: human lung cancer strain NCI-H441; format: cell-based
# How it was run: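 Step one: dispense the test compound in serial DMSO dilutions. Step three: add the reagent and measure […].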
# Sequence of HRAS wild-type protein (P01112 whole entry): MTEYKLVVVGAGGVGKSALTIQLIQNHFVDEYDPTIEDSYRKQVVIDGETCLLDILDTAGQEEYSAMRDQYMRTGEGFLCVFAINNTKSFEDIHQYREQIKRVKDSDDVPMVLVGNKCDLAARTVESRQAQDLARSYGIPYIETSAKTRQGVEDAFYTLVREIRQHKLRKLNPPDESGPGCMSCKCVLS
# Sequence of GDP-bound NRAS wild-type protein (P01111 whole entry): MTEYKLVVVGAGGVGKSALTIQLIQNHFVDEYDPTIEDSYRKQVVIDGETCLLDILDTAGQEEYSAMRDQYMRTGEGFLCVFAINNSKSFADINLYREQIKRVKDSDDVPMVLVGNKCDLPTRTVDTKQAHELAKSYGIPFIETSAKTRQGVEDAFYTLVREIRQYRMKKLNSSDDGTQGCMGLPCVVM
SMILES,NRAS /KRAS [1],HRAS /KRAS (HRAS wild-type protein),pIC50 [2]
CCCN1C(=O)CN(C)C(=O)CN(C)C(=O)[C@H]([C@@H](C)CC)NC(=O)[C@H](CC(C)C)N(C)C(=O)C[C@@H](C(=O)N2CCOCC2)N(C)C(=O)[C@H](C2CCCC2)N(C)C(=O)C2(CCCC2)NC(=O)[C@@H]2CCCN2C(=O)[C@H](CCc2ccc(C(F)(F)F)c(Cl)c2)NC(=O)CN(C)C(=O)[C@@H]1C1CCCC1 [PP0061] ([NMeL]I[Sar][Sar][X21][Sar][hPhe(3-Cl-4-CF3)]P[Ac5c][NMeGly(cPent)][NMeD]-Morpholide; lactam N-11),B (a compound having 3 or more and less than 10 is denoted as B),C (A compound having a KD ratio of 0.1 or more and less than 3 is denoted as C),7.07
CCCCN1C(=O)CN(C)C(=O)CN(C)C(=O)[C@H]([C@@H](C)CC)NC(=O)[C@H](CC(C)C)N(C)C(=O)C[C@@H](C(=O)N2CCOCC2)N(C)C(=O)[C@H](C2CCCC2)N(C)C(=O)C2(CCCC2)NC(=O)[C@@H]2CCCN2C(=O)[C@H](CCc2ccc(C(F)(F)F)c(Cl)c2)NC(=O)CN(C)C(=O)[C@@H]1Cc1ccc(C)cc1 [PP0062] ([NMeL]I[Sar][Sar][X1][Sar][hPhe(3-Cl-4-CF3)]P[Ac5c][NMeGly(cPent)][NMeD]-Morpholide; lactam N-11),C (A compound having a KD ratio of 0.1 or more and less than 3 is denoted as C),C (A compound having a KD ratio of 0.1 or more and less than 3 is denoted as C),8.42
CC[C@H](C)[C@@H]1NC(=O)[C@H](CC(C)C)N(C)C(=O)C[C@@H](C(=O)N2CCOCC2)N(C)C(=O)[C@H](C2CCCC2)N(C)C(=O)C2(CCCC2)NC(=O)[C@@H]2CCCN2C(=O)[C@H](CCc2ccc(C(F)(F)F)c(Cl)c2)NC(=O)CN(C)C(=O)[C@H](Cc2ccc(C)cc2)N(CC(C)C)C(=O)CN(C)C(=O)CN(C)C1=O [PP0063] ([NMeL]I[Sar][Sar][X40][Sar][hPhe(3-Cl-4-CF3)]P[Ac5c][NMeGly(cPent)][NMeD]-Morpholide; lactam N-11),C (A compound having a KD ratio of 0.1 or more and less than 3 is denoted as C),C (A compound having a KD ratio of 0.1 or more and less than 3 is denoted as C),7.41
CC[C@H](C)[C@@H]1NC(=O)[C@H](CC(C)C)N(C)C(=O)C[C@@H](C(=O)N2CCOCC2)N(C)C(=O)[C@H](C2CCCC2)N(C)C(=O)C2(CCCC2)NC(=O)[C@@H]2CCCN2C(=O)[C@H](CCc2ccc(C(F)(F)F)c(Cl)c2)NC(=O)CN(C)C(=O)[C@H](Cc2ccc(C)cc2)N(CC2CC2)C(=O)CN(C)C(=O)CN(C)C1=O [PP0064] ([NMeL]I[Sar][Sar][X49][Sar][hPhe(3-Cl-4-CF3)]P[Ac5c][NMeGly(cPent)][NMeD]-Morpholide; lactam N-11),C (A compound having a KD ratio of 0.1 or more and less than 3 is denoted as C),C (A compound having a KD ratio of 0.1 or more and less than 3 is denoted as C),8.00
CCCN1C(=O)CN(CC)C(=O)CN(C)C(=O)[C@H]([C@@H](C)CC)NC(=O)[C@H](CC(C)C)N(C)C(=O)C[C@@H](C(=O)N2CCOCC2)N(C)C(=O)[C@H](C2CCCC2)N(C)C(=O)C2(CCCC2)NC(=O)[C@@H]2CCCN2C(=O)[C@H](CCc2ccc(C(F)(F)F)c(Cl)c2)NC(=O)CN(C)C(=O)[C@@H]1Cc1ccc(C)cc1 [PP0065] ([NMeL]I[Sar][NEtG][NPrPhe(4-Me)][Sar][hPhe(3-Cl-4-CF3)]P[Ac5c][NMeGly(cPent)][NMeD]-Morpholide; lactam N-11),C (A compound having a KD ratio of 0.1 or more and less than 3 is denoted as C),C (A compound having a KD ratio of 0.1 or more and less than 3 is denoted as C),8.37
CCCN1C(=O)CN(C)C(=O)CN(C)C(=O)[C@H]([C@@H](C)CC)NC(=O)[C@H](CC(C)C)N(C)C(=O)C[C@@H](C(=O)N2CCOCC2)N(C)C(=O)[C@H](C2CCCC2)N(C)C(=O)C2(CCCC2)NC(=O)[C@@H]2CCCN2C(=O)[C@H](CCc2ccc(C(F)(F)F)c(Cl)c2)NC(=O)CN(CC)C(=O)[C@@H]1Cc1ccc(C)cc1 [PP0066] ([NMeL]I[Sar][Sar][NPrPhe(4-Me)][NEtG][hPhe(3-Cl-4-CF3)]P[Ac5c][NMeGly(cPent)][NMeD]-Morpholide; lactam N-11),B (a compound having 3 or more and less than 10 is denoted as B),C (A compound having a KD ratio of 0.1 or more and less than 3 is denoted as C),7.58
CCCN1C(=O)CN(CC)C(=O)CN(C)C(=O)[C@H]([C@@H](C)CC)NC(=O)[C@H](CC(C)C)N(C)C(=O)C[C@@H](C(=O)N2CCOCC2)N(C)C(=O)[C@H](C2CCCC2)N(C)C(=O)C2(CCCC2)NC(=O)[C@@H]2CCCN2C(=O)[C@H](CCc2ccc(C(F)(F)F)c(Cl)c2)NC(=O)CN(CC)C(=O)[C@@H]1Cc1ccc(C)cc1 [PP0069] ([NMeL]I[Sar][NEtG][NPrPhe(4-Me)][NEtG][hPhe(3-Cl-4-CF3)]P[Ac5c][NMeGly(cPent)][NMeD]-Morpholide; lactam N-11),C (A compound having a KD ratio of 0.1 or more and less than 3 is denoted as C),C (A compound having a KD ratio of 0.1 or more and less than 3 is denoted as C),7.40
CC[C@H](C)[C@@H]1NC(=O)[C@H](CC(C)C)N(C)C(=O)C[C@@H](C(=O)N2CCOCC2)N(C)C(=O)[C@H](C2CCCC2)N(C)C(=O)C2(CCCC2)NC(=O)[C@@H]2CCCN2C(=O)[C@H](CCc2ccc(C(F)(F)F)c(Cl)c2)NC(=O)CN(C)C(=O)[C@H](Cc2ccc(C(F)(F)F)cc2)N(C)C(=O)CN(C)C(=O)CN(C)C1=O [PP0076] ([NMeL]I[Sar][Sar][NMePhe(4-CF3)][Sar][hPhe(3-Cl-4-CF3)]P[Ac5c][NMeGly(cPent)][NMeD]-Morpholide; lactam N-11),C (A compound having a KD ratio of 0.1 or more and less than 3 is denoted as C),C (A compound having a KD ratio of 0.1 or more and less than 3 is denoted as C),7.96
CC[C@H](C)[C@@H]1NC(=O)[C@H](CC(C)C)N(C)C(=O)C[C@@H](C(=O)N2CCOCC2)N(C)C(=O)[C@H](C2CCCC2)N(C)C(=O)C2(CCCC2)NC(=O)[C@@H]2CCCN2C(=O)[C@H](CCc2ccc(C(F)(F)F)c(Cl)c2)NC(=O)CN(C)C(=O)[C@H](Cc2ccc(C)cc2)N(CC2CCCC2)C(=O)[C@@H]2CCN2C(=O)[C@H](C)N(C)C1=O [PP0084] ([NMeL]I[NMeA][Aze][X32][Sar][hPhe(3-Cl-4-CF3)]P[Ac5c][NMeGly(cPent)][NMeD]-Morpholide; lactam N-11),C (A compound having a KD ratio of 0.1 or more and less than 3 is denoted as C),B (a compound having 3 or more and less than 10 is denoted as B),7.30
